Experimental data from PMC5785446 (Alcoholism, clinical and experimental research, 2018).

Assays:
human MOP receptor = human MOP receptor (Homo sapiens, UniProt P35372); assay type: biochemical
C57BL/6J mice = conditions: mouse, in vivo
wild-type mice = conditions: mouse, in vivo

Chain of human MOP receptor (P35372 whole entry): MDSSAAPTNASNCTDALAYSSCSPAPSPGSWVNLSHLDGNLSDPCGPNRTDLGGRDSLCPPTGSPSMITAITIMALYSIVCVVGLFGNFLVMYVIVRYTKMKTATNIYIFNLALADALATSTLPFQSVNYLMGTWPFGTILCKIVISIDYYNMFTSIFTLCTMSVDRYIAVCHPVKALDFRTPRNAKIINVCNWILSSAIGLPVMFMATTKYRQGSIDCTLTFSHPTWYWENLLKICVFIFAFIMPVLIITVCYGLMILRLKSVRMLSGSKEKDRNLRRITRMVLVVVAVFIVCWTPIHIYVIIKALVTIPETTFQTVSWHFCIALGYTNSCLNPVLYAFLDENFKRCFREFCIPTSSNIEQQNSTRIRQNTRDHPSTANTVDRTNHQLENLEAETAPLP

SMILES	[35S]GTPγS MOP % Stim (human MOP receptor) [%]	effect on ethanol-induced CPP (C57BL/6J mice)	motor sedative effect on conditioning days (wild-type mice)
C[C@@H](NC(=O)[C@@H](N)Cc1ccc(O)cc1)C(=O)NCC(=O)N(C)[C@@H](Cc1ccccc1)C(=O)NCCO [DAMGO]	100	–	–
CCCC(C)C1(CC)C(=O)NC(=O)NC1=O (stereo not drawn) [pentobarbital]	–	did not alter the rewarding action of ethanol	robust motor sedative effect
